Laboratory results taken from patent publication US20220024921A1, “1,3,4-OXADIAZOLONE COMPOUND AND PHARMACEUTICAL” (NIPPON SHINYAKU CO., LTD., priority 2018, published 2022).
Counter-ions that a name gives are not always drawn.

Experiments:
[1] = molecular target: PIM1 transgenic cells (Ba/F3) (Homo sapiens, UniProt P11309); assay: Proliferation inhibitory effect on PIM1 transgenic cells; format: cell-based, mouse; conditions: proliferation inhibition, 72 hours, Cell Counting Kit-8, read-out: PIM1 IC50
Outline: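 Mouse Ba/F3 pro-B cells were retrovirally transduced with human PIM1 so that their proliferation depends on PIM1. Cells were treated with compound at 1–10000 nM final for 72 h, then read by CCK-8 (OD450−OD650). Inhibition was set against DMSO (0%) and no-cell blank (100%), and IC50 was obtained by two-parameter logistic regression.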

[2] = molecular target: T1, PIM1 serine/threonine kinase (Homo sapiens, UniProt P11309); assay: PIM1 serine/threonine kinase inhibitory effect; format: biochemical; conditions: PIM1 serine/threonine kinase activity; ATP 40 μM; 30° C., 30 minutes
T1 construct: purchased Carna Bioscience, Inc
Outline: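 Compounds were tested in duplicate from 0.01 to 10000 nM final against PIM1 kinase (0.15 μg/ml). The reaction ran for 30 minutes at 30° C with 40 μM ATP and 0.5 μM biotin-tagged substrate at pH 7.0. Phosphorylation was read by time-resolved FRET (OD665/OD620) after 1 h; IC50 by non-linear fit.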

T1 sequence (P11309 whole entry): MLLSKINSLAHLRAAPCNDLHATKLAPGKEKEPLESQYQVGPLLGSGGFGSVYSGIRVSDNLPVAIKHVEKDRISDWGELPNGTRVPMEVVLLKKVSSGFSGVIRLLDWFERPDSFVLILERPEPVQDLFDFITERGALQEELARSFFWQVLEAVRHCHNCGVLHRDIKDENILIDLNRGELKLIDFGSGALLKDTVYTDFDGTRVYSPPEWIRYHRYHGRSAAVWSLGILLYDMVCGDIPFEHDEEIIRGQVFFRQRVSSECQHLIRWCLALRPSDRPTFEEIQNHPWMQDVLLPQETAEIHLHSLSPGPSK
Chain of PIM1 transgenic cells (Ba/F3) (P11309 whole entry, stated change not applied): as the sequence (P11309 whole entry) above

In the case of `C[C@H](Nc1cc(-c2n[nH]c(=O)o2)cc(Cl)c1Cl)[C@H]1CC[C@H](N)CC1` [Example 174, 5-[3-({(1S)-1-[(1r,4S)-4-aminocyclohexyl]ethyl}amino)-4,5-dichlorophenyl]-1,3,4-oxadiazol-2(3H)-one hydrochloride], the GI50 [1] is reported as 0.018 µM and the IC50 [2] is reported as 0.0016 µM.
Work on `CC(C)Oc1c(F)cc(-c2n[nH]c(=O)o2)cc1N[C@@H](C)[C@H]1CC[C@H](N)CC1` [Example 175, 5-{3-({(1S)-1-[(1r,4S)-4-aminocyclohexyl]ethyl}amino)-5-fluoro-4-[(propan-2-yl)oxy]phenyl}-1,3,4-oxadiazol-2(3H)-one dihydrochloride] yielded a GI50 [1] of 0.32 µM and an IC50 [2] of 0.017 µM.
`CC1(C)[C@@H](CNc2cc(-c3n[nH]c(=O)o3)ccc2C(F)(F)F)C[C@H]1N` [Example 176, 5-[3-({[(1S,3R)-3-amino-2,2-dimethylcyclobutyl]methyl}amino)-4-(trifluoromethyl)phenyl]-1,3,4-oxadiazol-2(3H)-one] gave a GI50 [1] of 0.088 µM and an IC50 [2] of 0.0096 µM.
For `C[C@H](Nc1cc(-c2n[nH]c(=O)o2)cc(F)c1Cl)[C@H]1C[C@@H](N)C1` [Example 178, 5-[3-({(1S)-1-[(1s,3R)-3-aminocyclobutyl]ethyl}amino)-4-chloro-5-fluorophenyl]-1,3,4-oxadiazol-2(3H)-one hydrochloride], the GI50 [1] was 0.034 µM and the IC50 [2] was 0.0032 µM.
In the case of `C[C@H](Nc1cc(-c2n[nH]c(=O)o2)cc(Cl)c1Cl)[C@H]1C[C@@H](N)C1` [Example 179, 5-[3-({(1S)-1-[(1s,3R)-3-aminocyclobutyl]ethyl}amino)-4,5-dichlorophenyl]-1,3,4-oxadiazol-2(3H)-one dihydrochloride], the GI50 [1] is reported as 0.023 µM and the IC50 [2] is reported as 0.002 µM.
For `C[C@H](Nc1cc(-c2n[nH]c(=O)o2)cc(F)c1OC(F)(F)F)[C@H]1C[C@@H](N)C1` [Example 180, 5-[3-({(1S)-1-[(1s,3R)-3-aminocyclobutyl]ethyl}amino)-5-fluoro-4-(trifluoromethoxy)phenyl]-1,3,4-oxadiazol-2(3H)-one hydrochloride], the GI50 [1] was 0.03 µM and the IC50 [2] was 0.0022 µM.
`CC[C@H](Nc1cc(-c2n[nH]c(=O)o2)ccc1C(F)(F)F)[C@H]1CC[C@H](N)CC1` [Example 181, 5-[3-({(1S)-1-[(1r,4S)-4-aminocyclohexyl]propyl}amino)-4-(trifluoromethyl)phenyl]-1,3,4-oxadiazol-2(3H)-one hydrochloride] gave a GI50 [1] of 0.068 µM and an IC50 [2] of 0.0035 µM.
Compound `C[C@H](Nc1cc(-c2n[nH]c(=O)o2)cc(Br)c1Cl)[C@H]1C[C@@H](N)C1` [Example 182, 5-[3-({(1S)-1-[(1s,3R)-3-aminocyclobutyl]ethyl}amino)-5-bromo-4-chlorophenyl]-1,3,4-oxadiazol-2(3H)-one hydrochloride] has a GI50 [1] of 0.045 µM and an IC50 [2] of 0.0017 µM.
`C[C@H](Nc1cc(-c2n[nH]c(=O)o2)cc(C(F)(F)F)c1Cl)[C@H]1C[C@@H](N)C1` [Example 183, 5-[3-({(1S)-1-[(1s,3R)-3-aminocyclobutyl]ethyl}amino)-4-chloro-5-(trifluoromethyl)phenyl]-1,3,4-oxadiazol-2(3H)-one hydrochloride] was tested, and the GI50 [1] was 0.045 µM and the IC50 [2] was 0.0018 µM.
`CC(=O)N[C@H]1C[C@@H](CNc2cc(-c3n[nH]c(=O)o3)ccc2C(F)(F)F)C1(C)C` [Example 184, N-[(1S,3R)-2,2-dimethyl-3-{[5-(5-oxo-4,5-dihydro-1,3,4-oxadiazol-2-yl)-2-(trifluoromethyl)anilino]methyl}cyclobutyl]acetamide] was tested, and the GI50 [1] was 0.88 µM and the IC50 [2] was 0.065 µM.
In the case of `C[C@H](Nc1cc(-c2n[nH]c(=O)o2)ccc1C(F)(F)F)C12C3C4C1C1C2C3C41N` (stereo partly drawn) [Example 186, 5-[3-({(1S)-1-[(2S,3R)-4-aminocuban-1-yl]ethyl}amino)-4-(trifluoromethyl)phenyl]-1,3,4-oxadiazol-2(3H)-one hydrochloride], the GI50 [1] is reported as 2.3 µM and the IC50 [2] is reported as 0.011 µM.
In the case of `C[C@H](Nc1cc(-c2n[nH]c(=O)o2)ccc1C(F)(F)F)C12CCC(N)(CC1)C2` [Example 187, 5-[3-{[(1S)-1-(4-aminobicyclo[2.2.1]heptan-1-yl)ethyl]amino}-4-(trifluoromethyl)phenyl]-1,3,4-oxadiazol-2(3H)-one hydrochloride], the GI50 [1] is reported as 0.11 µM and the IC50 [2] is reported as 0.0087 µM.
`C[C@H](Nc1cc(-c2n[nH]c(=O)o2)ccc1C(F)(F)F)[C@@H]1CC[C@@H](N)CO1` [Example 188, 5-[3-({(S)-1-[(2S,5R)-5-aminotetrahydro-2H-pyran-2-yl]ethyl}amino)-4-(trifluoromethyl)phenyl]-1,3,4-oxadiazol-2(3H)-one] gave a GI50 [1] of 0.056 µM and an IC50 [2] of 0.0029 µM.
`CN[C@H]1CC[C@H]([C@H](C)Nc2cc(-c3n[nH]c(=O)o3)ccc2C(F)(F)F)CC1` [Example 189, 5-[3-({(1S)-1-[(1r,4S)-4-(methylamino)cyclohexyl]ethyl}amino)-4-(trifluoromethyl)phenyl]-1,3,4-oxadiazol-2(3H)-one hydrochloride] showed a GI50 [1] of 0.044 µM and an IC50 [2] of 0.0022 µM.
For `CN[C@H]1CC[C@H]([C@H](C)Nc2cc(-c3n[nH]c(=O)o3)cc(F)c2C(F)(F)F)CC1` [Example 190, 5-[3-fluoro-5-({(1S)-1-[(1r,4S)-4-(methylamino)cyclohexyl]ethyl}amino)-4-(trifluoromethyl)phenyl]-1,3,4-oxadiazol-2(3H)-one hydrochloride], the GI50 [1] was 0.041 µM and the IC50 [2] was 0.0019 µM.
For `C[C@H](Nc1cc(-c2n[nH]c(=O)o2)ccc1C(F)(F)F)[C@@H]1CCC[C@H](N)C1` [Example 191, 5-[3-({(1S)-1-[(1R,3S)-3-aminocyclohexyl]ethyl}amino)-4-(trifluoromethyl)phenyl]-1,3,4-oxadiazol-2(3H)-one hydrochloride], the GI50 [1] was 0.16 µM and the IC50 [2] was 0.011 µM.
Compound `CN[C@H]1C[C@@H]([C@H](C)Nc2cc(-c3n[nH]c(=O)o3)ccc2C(F)(F)F)C1` [Example 192, 5-[3-({(1S)-1-[(1s,3R)-3-(methylamino)cyclobutyl]ethyl}amino)-4-(trifluoromethyl)phenyl]-1,3,4-oxadiazol-2(3H)-one hydrochloride] has a GI50 [1] of 0.047 µM and an IC50 [2] of 0.0026 µM.
Compound `CCN[C@H]1CC[C@H]([C@H](C)Nc2cc(-c3n[nH]c(=O)o3)ccc2C(F)(F)F)CC1` [Example 193, 5-[3-({(1S)-1-[(1r,4S)-4-(ethylamino)cyclohexyl]ethyl}amino)-4-(trifluoromethyl)phenyl]-1,3,4-oxadiazol-2(3H)-one hydrochloride] has a GI50 [1] of 0.16 µM and an IC50 [2] of 0.0061 µM.
Work on `C[C@H](Nc1cc(-c2n[nH]c(=O)o2)ccc1C(F)(F)F)[C@H]1CCC[C@@H](N)C1` [Example 194, 5-[3-({(1S)-1-[(1S,3R)-3-aminocyclohexyl]ethyl}amino)-4-(trifluoromethyl)phenyl]-1,3,4-oxadiazol-2(3H)-one hydrochloride] yielded a GI50 [1] of 0.28 µM and an IC50 [2] of 0.012 µM.
Work on `CCN[C@H]1C[C@@H]([C@H](C)Nc2cc(-c3n[nH]c(=O)o3)ccc2C(F)(F)F)C1` [Example 195, 5-[3-({(1S)-1-[(1s,3R)-3-(ethylamino)cyclobutyl]ethyl}amino)-4-(trifluoromethyl)phenyl]-1,3,4-oxadiazol-2(3H)-one hydrochloride] yielded a GI50 [1] of 0.14 µM and an IC50 [2] of 0.0081 µM.
With `C[C@H](Nc1cc(-c2n[nH]c(=O)o2)ccc1C(F)(F)F)[C@H]1C[C@@H](NCC2CC2)C1` [Example 196, 5-[3-{[(1S)-1-{(1s,3R)-3-[(cyclopropylmethyl)amino]cyclobutyl}ethyl]amino}-4-(trifluoromethyl)phenyl]-1,3,4-oxadiazol-2(3H)-one hydrochloride] the GI50 [1] was 0.25 µM and the IC50 [2] was 0.0092 µM.
For `C[C@H](Nc1cc(-c2n[nH]c(=O)o2)ccc1C(F)(F)F)[C@H]1CC[C@H](NCC(F)(F)F)CC1` [Example 197, 5-[3-{[(1S)-1-{(1r,4S)-4-[(2,2,2-trifluoroethyl)amino]cyclohexyl}ethyl]amino}-4-(trifluoromethyl)phenyl]-1,3,4-oxadiazol-2(3H)-one hydrochloride], the GI50 [1] was 1.9 µM and the IC50 [2] was 0.14 µM.
In the case of `CC[C@H](Nc1cc(-c2n[nH]c(=O)o2)cc(F)c1C(F)(F)F)[C@H]1CC[C@H](N)CC1` [Example 198, 5-[3-({(1S)-1-[(1r,4S)-4-aminocyclohexyl]propyl}amino)-5-fluoro-4-(trifluoromethyl)phenyl]-1,3,4-oxadiazol-2(3H)-one], the GI50 [1] is reported as 0.1 µM and the IC50 [2] is reported as 0.0035 µM.
`C[C@H](Nc1cc(-c2n[nH]c(=O)o2)ccc1C(F)(F)F)[C@H]1CC[C@@H](N)C1` [Example 199, 5-[3-({(1S)-1-[(1S,3R)-3-aminocyclopentyl]ethyl}amino)-4-(trifluoromethyl)phenyl]-1,3,4-oxadiazol-2(3H)-one hydrochloride] gave a GI50 [1] of 0.11 µM and an IC50 [2] of 0.0039 µM.
`C[C@H](Nc1cc(-c2n[nH]c(=O)o2)ccc1C(F)(F)F)[C@@H]1CC[C@H](N)C1` [Example 200, 5-[3-({(1S)-1-[(1R,3S)-3-aminocyclopentyl]ethyl}amino)-4-(trifluoromethyl)phenyl]-1,3,4-oxadiazol-2(3H)-one hydrochloride] gave a GI50 [1] of 0.1 µM and an IC50 [2] of 0.0085 µM.
With `C[C@H](Nc1cc(-c2n[nH]c(=O)o2)ccc1C(F)(F)F)[C@H]1CC[C@H](NCCO)CC1` [Example 201, 5-[3-{[(1S)-1-{(1r,4S)-4-[(2-hydroxyethyl)amino]cyclohexyl}ethyl]amino}-4-(trifluoromethyl)phenyl]-1,3,4-oxadiazol-2(3H)-one hydrochloride] the GI50 [1] was 0.56 µM and the IC50 [2] was 0.0087 µM.
